Active and inactive are the calls of the source. No cut-off for these calls is given here.
What was measured:
[1] = Antiproliferative activity against human NCI-H820 cells assessed as inhibition of cell growth incubated for 72 hrs by MTT assay; format: functional, cell-based
Huh-7 = test: Antiproliferative activity against human Huh-7 cells assessed as inhibition of cell growth incubated for 72 hrs by MTT assay; format: functional, cell-based
PANC-1 = test: Antiproliferative activity against human PANC-1 cells assessed as inhibition of cell growth incubated for 72 hrs by MTT assay; format: functional, cell-based
NCI-H820 [2] = test: Antitumor activity against human NCI-H820 cells xenografted in BALB/c nude mouse model assessed as reduction in tumor volume at 30 mg/kg, po administered every 2 days; format: functional, organism-based; settings: time 2.0 day
NCI-H820 [3] = test: Antitumor activity against human NCI-H820 cells xenografted in BALB/c nude mouse model assessed as reduction in tumor weight at 30 mg/kg, po administered every 2 days; format: functional, organism-based; settings: time 2.0 day

IC50 (Huh-7; Homo sapiens, Huh-7, 72 h) [µM]	IC50 (PANC-1; Homo sapiens, PANC-1, 72 h) [µM]	IC50 (Huh-7; huh-7) [µM]	IC50 (PANC-1; panc-1) [µM]	SMILES	IC50 ([1]; Homo sapiens, NCI-H820, 72 h) [µM]	IC50 ([1]; nci-h820) [µM]	Activity (NCI-H820 [2])	Activity (NCI-H820 [3])
1.5	1.35			C=C1C(=O)O[C@H]2[C@H]1CC/C(CSC#N)=C\CC[C@@]1(C)O[C@@H]21	2.04			
3.6	5.13			C=C1C(=O)O[C@H]2[C@H]1CC/C(C)=C/CC[C@@]1(C)O[C@@H]21 [PARTHENOLIDE]	6.35			
0.99	1.09			C=C1C(=O)O[C@H]2[C@H]1CC/C(CSC(F)(F)F)=C\CC[C@@]1(C)O[C@@H]21	1.37			

More lines, now with the values behind:

SMILES	IC50 (Huh-7; Homo sapiens, Huh-7, 72 h) [µM]	IC50 (PANC-1; Homo sapiens, PANC-1, 72 h) [µM]	IC50 (Huh-7; huh-7) [µM]	IC50 (PANC-1; panc-1) [µM]	IC50 ([1]; Homo sapiens, NCI-H820, 72 h) [µM]	IC50 ([1]; nci-h820) [µM]	Activity (NCI-H820 [2])	Activity (NCI-H820 [3])
C[C@@]12CC/C=C(/CC(F)(F)F)CC[C@H]3C(CN4CCCC4)C(=O)O[C@@H]3[C@@H]1O2 (some centres not stated)			4.1	5.19		6.44		
CCCNCC1C(=O)O[C@H]2[C@H]1CC/C(CC(F)(F)F)=C\CC[C@@]1(C)O[C@@H]21 (some centres not stated)	4.32	4.59			4.39			
CN1CCN(CC2C(=O)O[C@H]3[C@H]2CC/C(CC(F)(F)F)=C\CC[C@@]2(C)O[C@@H]32)CC1 (some centres not stated) [listing 1 of 2 here]			14.2	12.7		22.5		
C[C@@]12CC/C=C(/CC(F)(F)F)CC[C@H]3C(CN4CCC(O)CC4)C(=O)O[C@@H]3[C@@H]1O2 (some centres not stated) [listing 1 of 2 here]			2.38	5.43		4.88		
C[C@@]12CC/C=C(/CC(F)(F)F)CC[C@H]3C(CN4CCC(O)CC4)C(=O)O[C@@H]3[C@@H]1O2 (some centres not stated) [listing 2 of 2 here]	4.38	5.79			6.32			
CN(C)CC1C(=O)O[C@H]2[C@H]1CC/C(CC(F)(F)F)=C\CC[C@@]1(C)O[C@@H]21 (some centres not stated)							Active	Active
C[C@@]12CC/C=C(/CC(F)(F)F)CC[C@H]3C(CN4CC[C@@H](O)C4)C(=O)O[C@@H]3[C@@H]1O2 (some centres not stated)			3.1	3.23		3.95		
CN1CCN(CC2C(=O)O[C@H]3[C@H]2CC/C(CC(F)(F)F)=C\CC[C@@]2(C)O[C@@H]32)CC1 (some centres not stated) [listing 2 of 2 here]	14.9	15.8			30.7			

From ChEMBL document CHEMBL6103569, “Discovery of novel fluorine-containing parthenolide analogues as potential antitumor agents” (Eur J Med Chem, 2025)
